This note sets out measurements from publication PMC6934184, “Selective DNA-PKcs inhibition extends the therapeutic index of localized radiotherapy and chemotherapy” (The Journal of Clinical Investigation, 2019).

The structures appear in SMILES notation.

The assay has as its target T1, FYN (Homo sapiens, UniProt P06241).
T1 construct: purchased Thermo Fisher Scientific (Life Technologies) SelectScreen
In words: SelectScreen Z'LYTE. In kind it is biochemical. The procedure: The in vitro kinase selectivity of NU5455 was determined using the SelectScreen Broad Assay Panel (Thermo Fisher Scientific) involving activity and binding assays (Supplemental Table 1). […] Class IA PI3Ks were measured using the p85α subunit.
Kinase [ATP] % Assay Kinase [ATP] % Assay Kinase [ATP] % Assay Kinase [ATP] % Assay
DNA-PK Km app 98.3 Z LATS2 n/a 4.7 L KIT D820E n/a 1.3 L GSK3B (GSK3 beta) Km app -2.5 Z
PIK3C3 (hVPS34) Km app 85.9 A PRKCZ (PKC zeta) Km app 4.7 Z GRK1 n/a 1.3 L BMPR2 n/a -2.5 L
PIK3C2B (PI3K-C2 beta) 10 28.9 A FGFR1 Km app 4.7 Z BRSK2 n/a 1.2 L CDC42 BPB (MRCKB) Km app -2.5 Z
SNF1LK2 Km app 26.6 Z MINK1 Km app 4.6 Z NUAK1 (ARK5) Km app 1.2 A AMPK (A2/B2/G2) n/a -2.6 L
HCK Km app 18.0 Z CSF1R (FMS) Km app 4.3 Z CDK9/cyclin K n/a 1.0 L PRKG1 Km app -2.7 Z
NEK2 Km app 17.8 Z CSNK1G3 (CK1 gamma 3) Km app 4.2 Z NUAK2 n/a 1.0 L KIT T670E n/a -2.8 L
ALK Km app 17.3 Z STK32C (YANK3) n/a 4.2 L CDK2/cyclin O n/a 0.9 L ERBB4 (HER4) Km app -2.8 Z
FGFR3 K650M n/a 16.5 L STK22D (TSSK1) Km app 4.2 Z CAMKK2 (CaMKK beta) n/a 0.9 L PLK4 n/a -2.8 L
SIK3 n/a 16.1 L TAOK3 (JIK) n/a 4.2 L FGFR3 Km app 0.9 Z GRK7 Km app -3.0 Z
LYN A Km app 15.2 Z RPS6KA4 (MSK2) Km app 4.2 Z ULK2 n/a 0.9 L MAPKAPK2 Km app -3.1 Z
BMPR1B (ALK6) n/a 14.5 L PTK2B (FAK2) Km app 4.2 Z KIT D816V n/a 0.9 L FGFR4 Km app -3.1 Z
INSRR (IRR) Km app 14.1 Z CLK2 Km app 4.1 Z CAMK1 (CaMK1) 10 0.8 A CASK n/a -3.1 L
PLK2 Km app 14.1 Z STK24 (MST3) Km app 4.1 Z PTK6 (Brk) Km app 0.7 Z GRK5 Km app -3.2 Z
PRKACA (PKA) Km app 14.0 Z CAMK1D (CaMKI delta) Km app 4.1 Z CAMK2B (CaMKII beta) Km app 0.7 Z EGFR (ErbB1) T790M Km app -3.3 Z
EIF2AK2 (PKR) n/a 13.3 L INSR Km app 4.1 Z ACVR1 (ALK2) n/a 0.7 L PAK4 Km app -3.3 Z
PRKX Km app 12.5 Z IRAK1 Km app 4.0 A ABL1 H396P n/a 0.6 L DAPK3 (ZIPK) Km app -3.4 Z
FGR Km app 12.1 Z SRC N1 Km app 3.9 Z MERTK (cMER) A708S n/a 0.6 L RET M918T n/a -3.5 L
CLK1 Km app 11.7 Z SRPK2 Km app 3.9 Z MAPKAPK5 (PRAK) Km app 0.6 Z PRKCQ (PKC theta) Km app -3.7 Z
MARK3 Km app 11.4 Z RPS6KA6 (RSK4) Km app 3.8 Z AKT1 (PKB alpha) Km app 0.5 Z CAMKK1 (CAMKKA) n/a -3.8 L
PDGFRB (PDGFR beta) Km app 11.0 Z GRK6 Km app 3.7 Z NTRK3 (TRKC) Km app 0.4 Z FLT3 D835Y Km app -3.9 Z
PRKCN (PKD3) Km app 10.7 Z PKN1 (PRK1) Km app 3.6 Z ZAP70 Km app 0.3 Z ROCK2 Km app -4.1 Z
STK16 (PKL12) n/a 10.5 L MAP3K8 (COT) 100 3.5 Z CSNK1A1 (CK1 alpha 1) Km app 0.3 Z CHUK (IKK alpha) Km app -4.2 A
FES (FPS) Km app 10.4 Z FLT4 (VEGFR3) Km app 3.5 Z MYLK (MLCK) n/a 0.2 L AXL Km app -4.2 Z
ABL1 Km app 10.4 Z GRK4 Km app 3.5 Z MKNK2 (MNK2) n/a 0.2 L PIM2 Km app -4.3 Z
MUSK Km app 10.3 Z FRK (PTK5) Km app 3.4 Z AMPK (A1/B1/G3) n/a 0.2 L PAK1 Km app -4.4 Z
MAPK1 (ERK2) Km app 10.1 Z FYN A n/a 3.3 L MAP3K2 (MEKK2) n/a 0.1 L BMPR1A (ALK3) n/a -4.4 L
BRAF 100 9.9 Z CDK1/cyclin A2 n/a 3.3 L CDK8/cyclin C n/a 0.1 L STK4 (MST1) Km app -4.4 Z
IGF1R Km app 9.7 Z KIT V559D T670I n/a 3.1 L MARK2 Km app 0.1 Z PRKCH (PKC eta) Km app -4.6 Z
MAPK14 (p38 alpha) Km app 9.7 Z SPHK2 10 3.1 A ICK n/a 0.0 L SGKL (SGK3) Km app -4.6 Z
LCK Km app 9.6 Z FGFR3 G697C n/a 3.1 L FGFR2 Km app 0.0 Z PI4KB (PI4K beta) Km app -4.7 A
MAPK11 (p38 beta) Km app 9.5 Z RIPK2 n/a 3.1 L AKT2 (PKB beta) Km app 0.0 Z PRKCE (PKC epsilon) Km app -4.9 Z
SRC Km app 9.5 Z PAK6 Km app 3.0 Z EPHB2 Km app -0.1 Z PHKG1 Km app -5.0 Z
CHEK1 (CHK1) Km app 9.3 Z LYN B Km app 3.0 Z TGFBR2 n/a -0.1 L PDGFRA D842V Km app -5.0 Z
CAMK2D (CaMKII delta) Km app 9.3 Z DAPK2 n/a 2.9 L TEK (Tie2) Km app -0.1 Z PRKG2 (PKG2) Km app -5.1 Z
PLK1 Km app 9.2 Z EPHA4 Km app 2.9 Z AURKA (Aurora A) Km app -0.1 Z TYRO3 (RSE) Km app -5.1 Z
RET Y791F Km app 9.2 Z PIK3CG (p110 gamma) Km app 2.9 A KIT D816H n/a -0.2 L TAOK2 (TAO1) Km app -5.1 Z
FLT3 Km app 9.1 Z HIPK1 (Myak) Km app 2.8 Z KIT N822K n/a -0.2 L EPHB4 Km app -5.3 Z
MAPK10 (JNK3) 100 9.0 Z ADRBK2 (GRK3) Km app 2.8 Z PRKACG (PRKAC gamma) n/a -0.2 L AURKC (Aurora C) Km app -5.4 Z
CSNK2A2 (CK2 alpha 2) Km app 8.7 Z STK17B (DRAK2) n/a 2.7 L TEK (TIE2) Y1108F n/a -0.3 L JAK1 Km app -5.7 Z […]

T1 sequence (P06241 whole entry): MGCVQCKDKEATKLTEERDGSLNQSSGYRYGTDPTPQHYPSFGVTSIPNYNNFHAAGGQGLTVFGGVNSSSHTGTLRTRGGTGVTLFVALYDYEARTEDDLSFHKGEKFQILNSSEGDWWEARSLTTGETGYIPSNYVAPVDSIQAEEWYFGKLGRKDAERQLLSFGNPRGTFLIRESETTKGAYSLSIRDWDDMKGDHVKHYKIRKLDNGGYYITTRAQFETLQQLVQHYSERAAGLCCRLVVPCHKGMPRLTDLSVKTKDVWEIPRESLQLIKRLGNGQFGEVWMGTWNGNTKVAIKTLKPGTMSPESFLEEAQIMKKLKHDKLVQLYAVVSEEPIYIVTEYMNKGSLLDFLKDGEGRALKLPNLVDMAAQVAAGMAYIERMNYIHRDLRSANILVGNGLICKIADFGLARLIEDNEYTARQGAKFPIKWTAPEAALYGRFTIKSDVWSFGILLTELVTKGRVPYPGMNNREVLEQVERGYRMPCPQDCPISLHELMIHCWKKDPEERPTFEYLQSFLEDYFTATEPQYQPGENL

Usually inhibition stands for how much of the control response was suppressed. High values mean strong suppression, low ones little suppression. As for `CN(C(=O)CN1CCOCC1)c1ccc2sc3c(-c4cccc5c(=O)cc(N6CC7CCC(C6)O7)oc45)cccc3c2c1` [NU5455], 1 µM produced 8.3% inhibition.
